From ChEMBL document CHEMBL3286191, “Exploring structural motifs necessary for substrate binding in the active site of Escherichia coli pantothenate kinase” (Bioorg Med Chem, 2014) come the findings set out here.

For orientation: kcat/Km means the second-order rate constant that governs catalysis at low substrate concentration. The Km is the substrate concentration at which the rate is half of its maximum. The kcat is the number of substrate molecules converted per active site and unit of time at saturation.

Active and inactive are the calls of the source. The rule behind the calls is not given here.

In assay [1] the test system is Escherichia coli. The experiment in a line: Ratio of kcat to Km for purified Escherichia coli pantothenate kinase by spectrophotometry.
For assay [2], the system named is Escherichia coli. The experiment in a line: Activity of purified Escherichia coli pantothenate kinase by spectrophotometry.
The subject of assay [3] is Escherichia coli. Description: Activity of purified Escherichia coli pantothenate kinase up to 1 uM by spectrophotometry.
The subject of assay [4] is Escherichia coli. The experiment in a line: Inhibition of purified Escherichia coli pantothenate kinase using pantothenate as substrate at 0.625 to 20 mM by spectrophotometry.

In the case of `CC(C)(CO)[C@@H](O)C(=O)NCCC(=O)NCCCN1CCOCC1`, the specificity constant (kcat/Km) in the assay with Escherichia coli [1] stood at 2900 M⁻¹ s⁻¹. Moreover, in the assay on Escherichia coli [2], the Km amounted to 350 µM and the catalytic constant (kcat) was determined as 1.03 s⁻¹.
Take `Cc1cccnc1NC(=O)CCNC(=O)[C@H](O)C(C)(C)CO`: the kcat/Km in the assay on Escherichia coli [1] is 20000 M⁻¹ s⁻¹. Moreover, in the assay with Escherichia coli [2], the Km turned out to be 39 µM and the kcat worked out at 0.78 s⁻¹.
As for `CC(C)(CO)[C@@H](O)C(=O)NCCC(=O)Nc1cc(Cl)ccc1Oc1ccc(Cl)cc1Cl`, the result with Escherichia coli [3] was inactive. Moreover, the inhibition entry in the assay on Escherichia coli [4] is “inactive”.
Turning to `CC(C)(CO)[C@@H](O)C(=O)NCCC(=O)NCCN1CCNCC1`, in the assay on Escherichia coli [1], the kcat/Km came out at 300 M⁻¹ s⁻¹. Further, in the assay on Escherichia coli [2], the Km was greater than 1000 µM and the kcat came out at 0.75 s⁻¹.
As for `CC(C)(CO)[C@@H](O)C(=O)NCCC(=O)NCCS`, the kcat/Km in the assay with Escherichia coli [1] was 17000 M⁻¹ s⁻¹. Further, in the assay with Escherichia coli [2], the Km came to 60 µM and the kcat was 1.03 s⁻¹.
The like results for `CC(C)(CO)[C@@H](O)C(=O)NCCC(=O)NCc1ccccc1` were, in that order, 17000 M⁻¹ s⁻¹, 67 µM and 1.15 s⁻¹.
On to `CC(C)(CO)[C@@H](O)C(=O)NCCC(=O)NCc1cccnc1`, for which the kcat/Km in the assay with Escherichia coli [1] worked out at 38000 M⁻¹ s⁻¹. In the assay with Escherichia coli [2], the Km worked out at 33 µM and the catalytic constant (kcat) is 1.24 s⁻¹.
On to `CCCCCNC(=O)CCNC(=O)[C@H](O)[C@@](C)(CO)CCCO`, for which, in the assay on Escherichia coli [3], the result was inactive. Also, in the assay with Escherichia coli [4], the inhibition result was “inactive”.
For the compound `CC(C)(CO)[C@@H](O)C(=O)NCCC(=O)NCCCn1ccnc1`, the kcat/Km in the assay on Escherichia coli [1] was found to be 21000 M⁻¹ s⁻¹. Moreover, in the assay with Escherichia coli [2], the Km is 22 µM and the kcat is 0.46 s⁻¹.
As for `CC(C)(CO)[C@@H](O)C(=O)NCCNC(=N)N`, the result in the assay with Escherichia coli [3] was inactive. In addition, the inhibition entry in the assay with Escherichia coli [4] was “inactive”.
Take `C=CCC[C@](C)(CO)[C@@H](O)C(=O)NCCC(=O)NCCCCC`: the outcome in the assay on Escherichia coli [3] was inactive. Moreover, in the assay with Escherichia coli [4], the inhibition result was “inactive”.
Turning to `CN(C)CCCNCCCNC(=O)CCNC(=O)[C@H](O)C(C)(C)CO`, the result with Escherichia coli [3] was inactive. In addition, in the assay with Escherichia coli [4], the inhibition result was “inactive”.
In the case of `CC(C)(CO)[C@@H](O)C(=O)NCCC(=O)O`, the kcat/Km with Escherichia coli [1] came to 50000 M⁻¹ s⁻¹. For the same compound, in the assay with Escherichia coli [2], the Km was 21 µM and the kcat was 1.07 s⁻¹.
`CC(C)(CO)[C@@H](O)C(=O)NCCCOc1cc(Cl)ccc1Oc1ccc(Cl)cc1Cl`: in the assay on Escherichia coli [3], the outcome was inactive. In addition, the inhibition result in the assay on Escherichia coli [4] is “inactive”.
On to `CCCCCNC(=O)CCNC(=O)[C@H](O)C(C)(C)CO`, for which, in the assay on Escherichia coli [1], the kcat/Km worked out at 26000 M⁻¹ s⁻¹. In the assay on Escherichia coli [2], the Km is 36 µM and the kcat came to 0.93 s⁻¹.
Turning to `CCCCCn1cc(CNC(=O)[C@H](O)C(C)(C)CO)nn1`, the kcat/Km with Escherichia coli [1] is 5100 M⁻¹ s⁻¹. Besides, in the assay with Escherichia coli [2], the Km was determined as 190 µM and the turnover number (kcat) amounted to 0.96 s⁻¹.
For the compound `CCCCCNC(CNC(=O)[C@H](O)C(C)(C)CO)C(=O)O` (some centres not stated), the kcat/Km in the assay with Escherichia coli [1] stood at 300 M⁻¹ s⁻¹. Further, in the assay on Escherichia coli [2], the Km is 700 µM and the kcat was 0.23 s⁻¹.
The like results for `C#CC[C@](C)(CO)[C@@H](O)C(=O)NCCC(=O)NCCCCC` were, in that order, 9000 M⁻¹ s⁻¹, 110 µM and 1.04 s⁻¹.
As to `CC(C)(CO)[C@@H](O)C(=O)NCCC(=O)NCC1CCNCC1`, in the assay with Escherichia coli [1], the kcat/Km amounted to 500 M⁻¹ s⁻¹. In addition, in the assay with Escherichia coli [2], the Km is greater than 1000 µM and the kcat came to 1.19 s⁻¹.
Consider `CC(C)(CO)[C@@H](O)C(=O)NCCCNC(=N)Nc1ccc(Cl)cc1`, for which the result with Escherichia coli [3] was inactive. Moreover, the inhibition entry in the assay on Escherichia coli [4] was “inactive”.
Consider `CC(C)(CO)[C@@H](O)C(=O)NCCC(=O)NCc1ccccn1`, for which, in the assay with Escherichia coli [1], the kcat/Km is 20000 M⁻¹ s⁻¹. In the assay on Escherichia coli [2], the Km worked out at 50 µM and the catalytic constant (kcat) was 1.02 s⁻¹.
As to `CC(C)(CO)[C@@H](O)C(=O)NCCC(=O)NCCCc1ccccc1`, the kcat/Km in the assay with Escherichia coli [1] was found to be 35000 M⁻¹ s⁻¹. Besides, in the assay on Escherichia coli [2], the Km stood at 32 µM and the kcat stood at 1.13 s⁻¹.
The like results for `CC(C)(CO)[C@@H](O)C(=O)NCCC(=O)NCCc1ccccn1` were, in that order, 11000 M⁻¹ s⁻¹, 110 µM and 1.15 s⁻¹.
The like results for `CCCCCNC(=O)CCNC(=O)[C@H](O)[C@](C)(CC)CO` were, in that order, 5100 M⁻¹ s⁻¹, 230 µM and 1.17 s⁻¹.
`CC(C)(CO)[C@@H](O)C(=O)NCCC(=O)N1CCc2ccccc21`: the kcat/Km in the assay on Escherichia coli [1] was 400 M⁻¹ s⁻¹. For the same compound, in the assay on Escherichia coli [2], the Km was 400 µM and the kcat came out at 0.18 s⁻¹.
`CC(C)(CO)[C@@H](O)C(=O)NCCC(=O)Nc1ccncn1`: in the assay on Escherichia coli [1], the specificity constant (kcat/Km) was 3200 M⁻¹ s⁻¹. In the assay on Escherichia coli [2], the Km was found to be 450 µM and the kcat was 1.44 s⁻¹.
The like results for `CCCCCNC(=O)CCNC(=O)[C@H](O)C(CC)(CC)CO` were, in that order, 200 M⁻¹ s⁻¹, 1200 µM and 0.28 s⁻¹.
As to `CC(C)(CO)[C@@H](O)C(=O)NCCC(=O)Nc1ccccc1`, in the assay on Escherichia coli [1], the kcat/Km was 24000 M⁻¹ s⁻¹. Further, in the assay with Escherichia coli [2], the Michaelis-Menten constant (Km) came to 43 µM and the kcat is 1.02 s⁻¹.
`CCCCCNC(=O)CNC(=O)CCNC(=O)[C@H](O)C(C)(C)CO`: the kcat/Km in the assay with Escherichia coli [1] stood at 10000 M⁻¹ s⁻¹. In the assay on Escherichia coli [2], the Km is 120 µM and the kcat amounted to 1.12 s⁻¹.
As to `CCCCCNC(=O)CNCCCNC(=O)[C@H](O)C(C)(C)CO`, in the assay on Escherichia coli [1], the kcat/Km came out at 100 M⁻¹ s⁻¹. Besides, in the assay on Escherichia coli [2], the Km is 1200 µM and the kcat turned out to be 0.13 s⁻¹.
Regarding `CC(C)(CO)[C@@H](O)C(=O)NCCC(=O)NCc1ccncc1`, in the assay with Escherichia coli [1], the kcat/Km stood at 7000 M⁻¹ s⁻¹. Further, in the assay with Escherichia coli [2], the Km is 130 µM and the kcat is 0.94 s⁻¹.
As for `CN(C)CCCNC(=O)CCNC(=O)[C@H](O)C(C)(C)CO`, the outcome in the assay with Escherichia coli [3] was inactive. Further, in the assay with Escherichia coli [4], the inhibition entry was “inactive”.
In the case of `CCCc1cn(CCCNC(=O)[C@H](O)C(C)(C)CO)nn1`, the kcat/Km in the assay on Escherichia coli [1] came to 500 M⁻¹ s⁻¹. For the same compound, in the assay with Escherichia coli [2], the Michaelis-Menten constant (Km) came to 1000 µM and the catalytic constant (kcat) turned out to be 0.49 s⁻¹.
Turning to `CC(C)(CO)[C@@H](O)C(=O)NCCS(=O)(=O)O`, the outcome with Escherichia coli [3] was inactive. Moreover, the inhibition result in the assay on Escherichia coli [4] is “inactive”.
Regarding `CC(C)(CO)[C@@H](O)C(=O)NCCC(=O)N1Cc2ccccc2C1`, in the assay on Escherichia coli [1], the kcat/Km worked out at 1900 M⁻¹ s⁻¹. Besides, in the assay with Escherichia coli [2], the Km was found to be 200 µM and the kcat came out at 0.45 s⁻¹.
In the case of `C=CC[C@](C)(CO)[C@@H](O)C(=O)NCCC(=O)NCCCCC`, the kcat/Km in the assay with Escherichia coli [1] stood at 1500 M⁻¹ s⁻¹. Moreover, in the assay with Escherichia coli [2], the Km was 590 µM and the kcat was 0.89 s⁻¹.
For `CCCC(=O)NCCNC(=O)CCNC(=O)[C@H](O)C(C)(C)CO`, in the assay with Escherichia coli [1], the kcat/Km is 4500 M⁻¹ s⁻¹. In the assay with Escherichia coli [2], the Km amounted to 240 µM and the kcat was determined as 1.09 s⁻¹.
